Source: article PMC12057046, “Elucidation of short linear motif-based interactions of the MIT and rhodanese domains of the ubiquitin-specific protease 8” (Biology Direct, 2025)

What was measured:
[1] = tested on: USP8 MIT domain; assay: Proteomic peptide-phage display (ProP-PD) selection against USP8 MIT domain; type: binding, human; parameters: Confidence: scale not given here; settings: for max_counts: Total NGS counts; for Confidence: calculated based on four metrics: overlapping peptides, replicated peptides, motif match, peptide counts; for Counts: fraction of NGS counts for a selection; for Promiscuity: number of baits selections where the peptide has been observed, calculated on the domain level; for Replicates: number of screens against the bait protein in which the peptide has been found; for Specificity: proportion for the current bait of the total NGS read counts of the peptide for all baits screened with this library
Method: We explored the peptide-binding of the USP8 MIT domain by using the purified GST-tagged MIT domain as bait in proteomic peptide-phage display (ProP-PD) selections and a library designed to display the predicted unstructured regions of the human proteome. The peptide-coding regions of the binding-enriched phage pools were analysed by next-generation sequencing (NGS). After filtering for high confidence ligands, ten ligands remained (Fig. 1B; Supplementary Table S1). None of the ten identified protein-protein interactions had been previously reported, based on comparison with the information available in IntAct, HIPPIE and BioGrid (February 2025). Of the USP8 interacting proteins found, the D site-binding protein (DBP), which is a clock-controlled transcription factor, appears as an interesting ligand as USP8 has been reported to be involved in controlling the circadian rhythm. Also, the CCDC88A-encoded protein Girdin is an interactor of potential biological relevance as it is a scaffolding protein involved in the EGFR pathway which USP8 is known to regulate. At the motif level, there was no shared consensus motif among the ten peptide ligands. However, by manual inspection we noticed that four of the peptides contained a shared [LI]xxR[IY]xxL sequence, which appears to be a variation of the [DE]xxLxxRLxxL[KR] MIM1 motif described in the Eukaryotic Linear Motif resource (ELM) (Fig. 1B). We performed a SPOT array alanine scanning analysis in which peptides are synthesised on a membrane, and where each amino acid position of the peptide is mutated to alanine (or glycine if alanine is in the wild type peptide) to evaluate the effect of the amino acid residues in binding. We tested two peptides containing the apparent MIM1-like motif, one from Girdin (Girdin1192 − 1207) and one from the histone-lysine N-methyltransferase SETD1B (SETD1B492 − 507). […] AlphaFold3 (AF3) modelling of the four peptides with the variant MIM1 motif and the MIT domain docked the peptides with high confidence (ipTM scores: HIVEP1_741 − 756: 0.87, Girdin1192 − 1207: 0.85, MLPH481 − 496: 0.82, SETD1B492 − 507: 0.75) at the expected MIM1 binding pocket (Fig. 1D). […] However, the USP8 MIT selection was dominated (more than 94% of NGS counts) by two peptides that lack an apparent MIM1 motif. The two peptides were from the EF-hand calcium-binding domain-containing protein 12 (EFCAB12_1 − 16: […]) and from DBP (DBP116 − 131: […]) (Fig. 1B). […] In comparison to this, the EFCAB12_1 − 16 peptide shares a potential Dx[YF]xxxH[SG] motif with the DBP116 − 131 (Fig. 1B). […] The AF3 model of DBP116 − 131 peptide supports the interaction of D120 of the DBP116 − 131 peptide with the residues K74 and N71 in the MIT domain (Fig. 1G), emphasizing the significance of the aspartic acid at this position. […] Of them, two peptides (SYNE2_853 − 868 and PKNOX1_56 − 71) where placed in the same binding site as the Girdin and DBP peptides with high confidences by AF3 modelling (ipTM 0.92 and 0.74; Supplementary Fig. S3).
Four rounds of phage selections were carried out using the second generation human disorderome library or the constructed deep mutational scanning library. At least three individual replicates were used for each bait protein. 10 µg of GST-tagged proteins or GST control (diluted in PBS from the stock of proteins kept in the purification elution buffer) were immobilized in 100 µL PBS on a 96-well MaxiSorp (Nunc) plate overnight at 4 °C. The plates were incubated with blocking buffer (with 0.5% BSA in PBS) for 1 h at 4 °C followed by washing with 0.05% Tween 20 in PBS four times. The naïve phage library (10^11 CFU) was diluted in 1/5th volume PEG/NaCl (20% PEG-8000, 0.4 M NaCl) and 1X PBS, incubated on ice for 10 min and centrifuged at 10,000 [drawing 3] g for 10 min. The pellet was resuspended in the volume of PBS (100 µL/ well). […]

[2] = tested on: USP8 MIT domain; assay: Peptide-phage display-based deep mutational scanning (DMS), USP8 MIT domain; type: binding, human; settings: bait USP8_MIT__P40818_1_142
Procedure, shortened: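 Four rounds of phage selection against immobilized GST-tagged bait (GST control pre-clearing) at 4 °C, using human disorderome or 16-mer deep mutational scanning library (all non-Cys substitutions), ≥3 replicates. Enriched pools sequenced by Illumina NGS; replicate-summed counts converted to averaged fractions and frequency PSSMs per wild-type peptide.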

[3] = sheet S3.B_ProP-PD_pairs, ratio within the wild-type/mutant pair, larger over smaller averaged fraction (direction from fraction_wt and fraction_mut)
[4] = MLPH 482-497, ratio of averaged fractions of wild-type/mutant peptide pair, larger over smaller (direction to be read from the two fractions)
[5] = EFCAB12 (Q6NXP0) 2-17, pair of mutant with wild-type wt_00016 (MDDDYEAYHSLFLSLL), sheet S3.B_ProP-PD_pairs

Sequence | hit_pair_ratio [2, 4] | also measured
HDSLDSRIEMLLKEQR [SETD1B 496-511, Histone-lysine N-methyltransferase SETD1B peptide, overlapping] |  | max_counts [1]: 7; Confidence [1]: 2; Counts [1]: 0.0001221; Promiscuity [1]: 1; Replicates [1]: 3; Specificity [1]: 1
HRRVRTEGKESSSASR [CACNA1E, Voltage-dependent R-type calcium channel subunit alpha-1E peptide 923-938] |  | NGS counts (%) ([1]; ProP-PD, human disorderome library, GST-tagged MIT bait, four rounds of selection, percent of NGS counts associated with each peptide, Fig. 1B): 0.87%; max_counts [1]: 96; Confidence [1]: 2; Counts [1]: 0.001177; Promiscuity [1]: 3; Replicates [1]: 2; Specificity [1]: 0.7101
SEGSDIESRIAALRAA |  | hit_pair_ratio [2, 3]: 7.79
SEISDIESRIAALRAA |  | hit_pair_ratio [2, 3]: 2.51
SELSDIESRIAALRAA |  | hit_pair_ratio [2, 3]: 11.85
SEPSDIESRIAALRAA |  | hit_pair_ratio [2, 3]: 2.03
SEQSDIESRIAALRAA |  | hit_pair_ratio [2, 3]: 5.24
SESSDIESRIAALRAA |  | hit_pair_ratio [2, 3]: 3.89
SETSDIESRIAALRAA |  | hit_pair_ratio [2, 3]: 1.00
SEVADIESRIAALRAA | 7.79 | 
SEVEDIESRIAALRAA | 7.79 | 
SEVFDIESRIAALRAA | 1.56 | 
SEVGDIESRIAALRAA | 2.28 | 
SEVHDIESRIAALRAA | 28.09 | 
SEVIDIESRIAALRAA | 6.39 | 
SEVKDIESRIAALRAA | 8.70 | 
SEVLDIESRIAALRAA | 9.47 | 
SEVMDIESRIAALRAA | 4.36 | 
SEVNDIESRIAALRAA | 7.79 | 
SEVQDIESRIAALRAA | 3.89 | 
SEVRDIESRIAALRAA | 4.05 | 
SEVSDDESRIAALRAA | 7.79 | 
SEVSDFESRIAALRAA | 49.08 | 
SEVSDHESRIAALRAA | 1.54 | 
SEVSDIEDRIAALRAA | 4.82 | 
SEVSDIEERIAALRAA | 7.79 | 

Sequence | hit_pair_ratio [2, 4] | also measured
SEVSDIEGRIAALRAA | 2.60 | 
SEVSDIEHRIAALRAA | 4.62 | 
SEVSDIELRIAALRAA | 4.11 | 
SEVSDIEMRIAALRAA | 7.10 | 
SEVSDIENRIAALRAA | 1.11 | 
SEVSDIEPRIAALRAA | 7.79 | 
SEVSDIEQRIAALRAA | 1.11 | 
SEVSDIERRIAALRAA | 1.35 | 
SEVSDIESREAALRAA | 3.89 | 
SEVSDIESRFAALRAA | 9.56 | 
SEVSDIESRIAAARAA | 3.89 | 
SEVSDIESRIAALHAA | 1.15 | 
SEVSDIESRIAALIAA | 3.61 | 
SEVSDIESRIAALLAA | 9.42 | 
SEVSDIESRIAALRAF | 7.79 | 
SEVSDIESRIAALRAI | 17.25 | 
SEVSDIESRIAALRAL | 1.15 | 
SEVSDIESRIAALRAM | 108.17 | 
SEVSDIESRIAALRAV | 1.51 | 
SEVSDIESRIAALRAY | 1.28 | 
SEVSDIESRIAALREA | 7.79 | 
SEVSDIESRIAALRMA | 17.19 | 
SEVSDIESRIAALRNA | 7.79 | 
SEVSDIESRIAALRWA | 7.79 | 
SEVSDIESRIAALRYA | 7.79 | 
SEVSDIESRIAALTAA | 7.79 | 

Sequence | hit_pair_ratio [2, 4] | also measured
SEVSDIESRIAALVAA | 18.10 | 
SEVSDIESRIAASRAA | 1.95 | 
SEVSDIESRIAATRAA | 7.79 | 
SEVSDIESRIAAWRAA | 2.60 | 
SEVSDIESRIAELRAA | 1.95 | 
SEVSDIESRIALLRAA | 1.95 | 
SEVSDIESRIAMLRAA | 1.77 | 
SEVSDIESRIAVLRAA | 2.60 | 
SEVSDIESRIDALRAA | 7.79 | 
SEVSDIESRIEALRAA | 2.26 | 
SEVSDIESRIKALRAA | 3.89 | 
SEVSDIESRIMALRAA | 6.39 | 
SEVSDIESRINALRAA | 7.79 | 
SEVSDIESRISALRAA | 1.49 | 
SEVSDIESRKAALRAA | 7.79 | 
SEVSDIESRQAALRAA | 2.60 | 
SEVSDIKSRIAALRAA | 3.89 | 
SEVSDISSRIAALRAA | 1.56 | 
SEVSDITSRIAALRAA | 1.11 | 
SEVSDRESRIAALRAA | 2.60 | 
SEVSDTESRIAALRAA | 3.89 | 
SEVSDVESRIAALRAA | 7.79 | 
SEVSDYESRIAALRAA | 2.23 | 
SEVSEIESRIAALRAA | 1.80 | 
SEVSHIESRIAALRAA | 7.79 | 
SEVSNIESRIAALRAA | 3.89 | 

Sequence | hit_pair_ratio [2, 4] | also measured
SEVSYIESRIAALRAA | 7.79 | 
SEVVDIESRIAALRAA | 12.32 | 
SEVWDIESRIAALRAA | 1.49 | 
SEVYDIESRIAALRAA | 346.56 | 
SEWSDIESRIAALRAA | 1.11 | 
SEYSDIESRIAALRAA | 1.74 | 
SHVSDIESRIAALRAA |  | hit_pair_ratio [2, 3]: 1.51
SKVSDIESRIAALRAA |  | hit_pair_ratio [2, 3]: 3.89
SLVSDIESRIAALRAA |  | hit_pair_ratio [2, 3]: 1.11
SMVSDIESRIAALRAA |  | hit_pair_ratio [2, 3]: 7.79
SNVSDIESRIAALRAA |  | hit_pair_ratio [2, 3]: 1.35
SPVSDIESRIAALRAA |  | hit_pair_ratio [2, 3]: 1.56
SQVSDIESRIAALRAA |  | hit_pair_ratio [2, 3]: 1.00
SRVSDIESRIAALRAA |  | hit_pair_ratio [2, 3]: 3.31
SSVSDIESRIAALRAA |  | hit_pair_ratio [2, 3]: 24.28
SVVSDIESRIAALRAA |  | hit_pair_ratio [2, 3]: 2.60
SYVSDIESRIAALRAA |  | hit_pair_ratio [2, 3]: 1.00
TDDDYEAYHSLFLSLL [mut_04335] |  | hit_pair_ratio [2, 5]: 30.76
TEVSDIESRIAALRAA |  | hit_pair_ratio [2, 3]: 6.74
VDDDYEAYHSLFLSLL [mut_04336] |  | hit_pair_ratio [2, 5]: 42.24
VEVSDIESRIAALRAA |  | hit_pair_ratio [2, 3]: 3.36
WDDDYEAYHSLFLSLL [mut_04337] |  | hit_pair_ratio [2, 5]: 1.74
WEVSDIESRIAALRAA |  | hit_pair_ratio [2, 3]: 13.49
YDDDYEAYHSLFLSLL [mut_04338] |  | hit_pair_ratio [2, 5]: 1.04
YEVSDIESRIAALRAA |  | hit_pair_ratio [2, 3]: 4.18
